The text below walks through data of patent US20230002352A1, “SULFONAMIDE DERIVATIVES AS CTPS1 INHIBITORS” (Step Pharma S.A.S., priority 2019, published 2023).

One assay concerns the target T1, human CTPS1 (Homo sapiens, UniProt P17812).
T1 construct: purchased Proteros biostructures GmbH
T1 sequence (P17812 1-591): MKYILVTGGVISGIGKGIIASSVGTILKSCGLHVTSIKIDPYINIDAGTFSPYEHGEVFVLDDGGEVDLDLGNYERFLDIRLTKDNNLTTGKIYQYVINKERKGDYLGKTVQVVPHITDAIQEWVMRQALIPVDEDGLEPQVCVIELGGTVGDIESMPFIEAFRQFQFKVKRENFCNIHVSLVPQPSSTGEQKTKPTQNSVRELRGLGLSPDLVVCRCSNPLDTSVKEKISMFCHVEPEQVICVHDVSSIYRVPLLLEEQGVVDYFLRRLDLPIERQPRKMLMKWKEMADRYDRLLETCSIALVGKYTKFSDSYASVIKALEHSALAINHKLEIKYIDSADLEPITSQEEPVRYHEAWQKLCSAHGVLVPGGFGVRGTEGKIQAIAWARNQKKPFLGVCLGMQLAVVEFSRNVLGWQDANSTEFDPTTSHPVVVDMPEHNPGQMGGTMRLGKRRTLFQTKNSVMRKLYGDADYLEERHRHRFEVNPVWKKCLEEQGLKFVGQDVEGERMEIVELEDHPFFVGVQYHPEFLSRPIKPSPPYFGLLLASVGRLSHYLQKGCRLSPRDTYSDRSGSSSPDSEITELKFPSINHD
In words: Human CTPS1 enzyme inhibition (ADP-Glo Max assay). The class given is biochemical. To be noted: Table 23; ADP-Glo Max assay; read-out: CTPS1 (Human CTPS1 Enzyme Inhibition data grouped by potency range, IC50). The protocol:
Biological Example 1—Human CTPS1 Enzyme Inhibition
The enzyme inhibitory activities of compounds invented against the target of interest were determined using the ADP-Glo™ Max assay (Promega, UK). Assays for human CTPS1 were performed in 1× assay buffer containing 50 mM Tris, 10 mM MgCl2, 0.01% Tween-20, pH to 8.0 accordingly. Finally, immediately before use, L-cysteine was added to the 1× assay buffer to a final concentration of 2 mM. All reagents are from Sigma-Aldrich unless specified otherwise. Human full length active C-terminal FLAG-Hiss-tag CTPS1 (UniProtKB-P17812, CTPS[1-591]-[…]) was obtained from Proteros biostructures GmbH.
3× human CTPS1 protein was prepared in 1× assay buffer to the final working protein concentration required for the reaction. A 2 uL volume per well of 3× human CTPS1 protein was mixed with 2 uL per well of 3× test compound (compound prepared in 1× assay buffer to an appropriate final 3× compound concentration respective to the concentration response curve designed for the compounds under test) for 10 minutes at 25° C. The enzymatic reaction was then initiated by addition of a 2 uL per well volume of a pre-mixed substrate mix (UltraPure ATP from ADP-Glo™ Max kit (0.31 mM), GTP (0.034 mM), UTP (0.48 mM) and L-glutamine (0.186 mM)) and the mixture was incubated for an appropriate amount of time within the determined linear phase of the reaction at 25° C. under sealed plate conditions with constant agitation at 500 revolutions per minute (rpm). ADP-Glo™ Max reagent was added for 60 minutes (6 μL per well) and subsequently ADP-Glo™ Max development reagent was added for 60 minutes (12 uL per well) prior to signal detection in a microplate reader (EnVision® Multilabel Reader, Perkin Elmer). Following each reagent addition over the course of the assay, assay plates were pulse centrifuged for 30 seconds at 500 rpm.
In all cases, the enzyme converts ATP to ADP and the ADP-Glo™ Max reagent subsequently depletes any remaining endogenous ATP in the reaction system. The ADP-Glo™ Max detection reagent converts the ADP that has been enzymatically produced back into ATP and using ATP as a substrate together with luciferin for the enzyme luciferase, light is generated which produces a detectable luminescence. […] The percentage inhibition produced by each concentration of compound was calculated using the equation shown below: […]
Percentage inhibition was then plotted against compound concentration, and the 50% inhibitory concentration (IC50) was determined from the resultant concentration-response curve.
`CC(C)(C(=O)Nc1ccc(-c2cccnc2)cc1F)c1ccnc(NS(=O)(=O)C2CC2)n1` [Example P36]: the IC50 lay within 1000 to 10000 nM.
For `CCOc1cncc(-c2ccc(NC(=O)C(C)(C)c3cc(C(F)(F)F)nc(NS(=O)(=O)C4CC4)n3)nc2)n1` [Example P124], the IC50 lay in the range of 100 to 1000 nM.
Same read-out and setting: then `CCOc1cncc(-c2ccc(NC(=O)C(C)(C)c3ccnc(NS(=O)(=O)C4CC4)n3)cc2)n1` [Example P65], with not above 100 nM; and `CC(C)(C(=O)Nc1ccc(-c2cccnc2)cn1)c1cccc(NS(=O)(=O)C2CC2)n1` [Example P175], with 1000 to 10000 nM.
Turning to `CCOc1cncc(-c2ccc(NC(=O)C(C)(C)c3cc(C(F)(F)F)nc(NS(=O)(=O)C4CC4)n3)cc2)n1` [Example P135], the half-maximal inhibitory concentration (IC50) lay in the range of 100 to 1000 nM.
On the same count and under the same terms, next, `CCOc1cncc(-c2ccc(NC(=O)C(C)(C)c3cc(C)nc(NS(=O)(=O)C4CC4)n3)c(F)c2)n1` [Example P129]: 100 to 1000 nM; `COc1cncc(-c2ccc(NC(=O)C(C)(C)c3ccnc(NS(=O)(=O)C4CCC4)n3)cc2)n1` [Example P25]: 100 to 1000 nM; `CC(C)(C(=O)Nc1ccc(-c2cccnc2)cc1)c1cccc(NS(=O)(=O)C2CC2)n1` [Example P179]: 1000 to 10000 nM.
Same read-out and setting: next, `CC(C)(C(=O)Nc1ccc(-c2cnccn2)cc1F)c1cccc(NS(=O)(=O)C2CC2)n1` [Example P180]: 1000 to 10000 nM.
`COc1cncc(-c2ccc(NC(=O)C(C)(C)c3ccnc(NS(=O)(=O)C4CC4)n3)cc2)c1` [Example P56]: the IC50 lay in the range of 100 to 1000 nM.
As for `CC(C)(C(=O)Nc1ccc(-c2cncc(C(F)(F)F)n2)cn1)c1ccnc(NS(=O)(=O)C2CC2)n1` [Example P30], the IC50 was not above 100 nM.
Take `N#Cc1cncc(-c2ccc(NC(=O)Cc3cccc(NS(=O)(=O)C4CC4)n3)cc2)c1` [Example P168]: the IC50 was 100 to 1000 nM.
For the compound `CC(C)(C(=O)Nc1ccc(-c2cncc(F)c2)cc1)c1ccnc(NS(=O)(=O)C2CC2)n1` [Example P53], the IC50 fell in the range of 100 to 1000 nM.
As to `Cc1cc(-c2cncc(C(F)(F)F)n2)ccc1NC(=O)C(C)(C)c1ccnc(NS(=O)(=O)C2CC2)n1` [Example P43], the IC50 was in the range of 100 to 1000 nM.
For `CCOc1cncc(-c2ccc(NC(=O)C(C)(C)c3ccnc(NS(=O)(=O)C4CC4)n3)c(C)c2C)n1` [Example P44], the IC50 lay within 100 to 1000 nM.
On the same count and under the same terms, next, `CCS(=O)(=O)Nc1nccc(C(C)(C)C(=O)Nc2ccc(-c3cncc(C(F)(F)F)n3)cc2)n1` [Example P73]: 100 to 1000 nM; `O=C(Cc1ccnc(NS(=O)(=O)C2CC2)n1)Nc1ccc(-c2cncc(C(F)(F)F)c2)cc1` [Example P13]: 100 to 1000 nM.
In the case of `CC(C)(C(=O)Nc1ccc(-c2cnccn2)cc1F)c1ccnc(NS(=O)(=O)C2CC2)n1` [Example P42], the half-maximal inhibitory concentration (IC50) lay within 1000 to 10000 nM.
`CC(C)(C(=O)Nc1ccc(-c2cncc(OC3CC3)n2)cc1)c1ccnc(NS(=O)(=O)C2CC2)n1` [Example P66]: the IC50 fell in the range of 100 to 1000 nM.
The same measure, in the same setting: then `COc1cncc(-c2ccc(NC(=O)Cc3cccc(NS(=O)(=O)C4CC4)n3)cc2)c1` [Example P170], with 100 to 1000 nM; and `O=C(Cc1ccnc(NS(=O)(=O)C2CC2)n1)Nc1ccc(-c2cncc(OCC(F)(F)F)n2)cc1` [Example P20], with not above 100 nM.
The same measure, in the same setting: next, `CC(C)(C(=O)Nc1ccc(-c2cncc(Cl)c2)cc1)c1ccnc(NS(=O)(=O)C2CC2)n1` [Example P51]: 100 to 1000 nM.
On to `CC(C)Oc1cncc(-c2ccc(NC(=O)C(C)(C)c3ccnc(NS(C)(=O)=O)n3)c(F)c2)c1` [Example P77], for which the IC50 lay in the range of 1000 to 10000 nM.
The same measure, in the same setting: then `CCOc1cncc(-c2ccc(NC(=O)C(C)(CCOC)c3ccnc(NS(C)(=O)=O)n3)nc2)n1` (stereo not shown) [Example P147], with 100 to 1000 nM.
On to `CCC(F)(C(=O)Nc1ccc(-c2cncc(C3CC3)n2)cn1)c1ccnc(NS(=O)(=O)C2CC2)n1` (stereo not shown) [Example P150], for which the IC50 was not above 100 nM.
As to `CCOc1cncc(-c2cc(F)c(NC(=O)C(C)(C)c3ccnc(NS(=O)(=O)C4CC4)n3)cc2C)n1` [Example P40], the IC50 lay in the range of 100 to 1000 nM.
The same measure, in the same setting: next, `CC(C)(C(=O)Nc1ccc(-c2cncnc2)cc1)c1ccnc(NS(=O)(=O)C2CC2)n1` [Example P50]: 1000 to 10000 nM; `CC(C)c1cncc(-c2ccc(NC(=O)C(C)(C)c3ccnc(NS(=O)(=O)C4CC4)n3)nc2)n1` [Example P116, 2-(2-(Cyclopropanesulfonamido)pyrimidin-4-yl)-N-(5-(6-isopropylpyrazin-2-yl)pyridin-2-yl)-2-methylpropanamide]: 100 to 1000 nM; `CCC(F)(C(=O)Nc1ccc(-c2cncc(Cl)c2)cn1)c1ccnc(NS(=O)(=O)C2CC2)n1` (stereo not shown) [Example P149]: not above 100 nM.
Still for that read-out and setting: next, `CC(C)Oc1cncc(-c2ccc(NC(=O)C(C)(C)c3ccnc(NS(=O)(=O)C4CC4)n3)cc2)n1` [Example P67]: not above 100 nM; `CCOc1cncc(-c2cnc(NC(=O)C(CCOC)c3ccnc(NS(=O)(=O)C4CC4)n3)c(F)c2)n1` (stereo not shown) [Example P144]: not above 100 nM.

The assay is the same for the next values; noted with them: Table 24; ADP-Glo Max assay; read-out: CTPS1 (Human CTPS1 Enzyme Inhibition data grouped by potency range, IC50).
For the compound `CCOc1cncc(-c2ccc(NC(=O)C3(c4ccnc(NS(=O)(=O)C5CC5)n4)CC4(C3)OCCO4)nc2)n1` [Example P258], the IC50 was not above 100 nM.
Same read-out and setting: next, `CCOc1cncc(-c2ccc(CNC3(c4ccnc(NS(=O)(=O)C5CC5)n4)CC3)c(F)c2)n1` [Example P255]: 100 to 1000 nM.

Staying with this assay, now noted: Table 25; compounds where R1 is substituted by CN; read-out: CTPS1 (Human CTPS1 Enzyme Inhibition data grouped by potency range, IC50).
On to `CCOc1cncc(-c2ccc(NC(=O)C3(c4ccnc(NS(=O)(=O)C5(C#N)CC5)n4)CCOCC3)nc2)n1` [Example P285, 4-(2-((1-cyanocyclopropane)-1-sulfonamido)pyrimidin-4-yl)-N-(5-(6-ethoxypyrazin-2-yl)pyridin-2-yl)tetrahydro-2H-pyran-4-carboxamide], for which the IC50 is not above 100 nM.
